From patent US5571687A, “Modulators of multidrug resistance transporters” (Duke University, priority 1994, dated 1996)
Where two headings read alike, the source gives them in different places.

Key:
[1] = biological target: P-glycoprotein (human MDR1 expressed in Sf9 cells) (Homo sapiens, UniProt P08183, G185V); assay: P-gp-associated ATPase activity (vanadate-sensitive release of inorganic phosphate from ATP), stimulation, membranes of Sf9 cells expressing human MDR1
Source text: (§1) physiologic and non-physiologic compounds, including prenylcysteines and analogs thereof, can be tested in vitro for their ability to serve as P-gp substrates (and thus modulators of MDR transporter activity), both in terms of stimulating the intrinsic ATPase activity of the transporter and competing for drug binding. Insect cells (eg Sf9 cells) infected with baculovirus containing MDR1 cDNA (available from the American Type Culture Collection, Rockville, Md.) can be used as a source of membranes suitable for use in such in vitro screens. Membranes from drug-induced resistant cells can also be used (eg, MCF7-MDR breast cancer cells). Details of an appropriate protocol for testing compounds for their ability to stimulate P-gp-associated ATPase are given in the Examples. The method described involves incubating MDR transporter-containing membranes with the test compound and measuring the level of vanadate sensitive release of inorganic phosphate from ATP (see Sarkadi et al, J. Biol. Chem. 267:4854 (1992)).
Sf9 cells were grown in Grace's insect culture media supplemented with 10% fetal bovine serum (HyClone), 0.1% Pluronic F-68, 100 unit/ml penicillin and 100 μg/ml streptomycin. Sf9 cells were infected with baculovirus according to established procedures (O'Reilly et al, Baculovirus Expression Vectors--A Laboratory Manual, New York: W.H. Freeman & Co. (1992)). Recombinant baculovirus containing the human MDR1V185 cDNA (Germann et al, Biochemistry 29:2295 (1990)) was provided by Dr. M. Gottesman (MDR1 cDNAs are available from the American Type Culture Collection, Rockville, Md.). Mock-infection was carried out using recombinant baculovirus containing the cDNA encoding a protein prenyltransferase. […] These cells were grown in Iscove's Modified Dulbecco's Media (MDM) supplemented with 10% fetal bovine serum. The MCF7-MDR cells were exposed to 10 μM doxorubicin every 8-10 passages to maintain the drug-resistant phenotype.
Sf9 membranes were prepared from cells harvested 3 days after infection with specified baculovirus as described (Sarkadi et al, J. Biol. Chem. 267:4854 (1992)). MCF7 membranes from both wild-type and drug-resistant cell lines were prepared by nitrogen cavitation procedures (Cornwell et al, J. Biol. Chem. 261:7921 (1986)), flash-frozen in liquid nitrogen, and stored at -80° C. until use.
P-gp-associated ATPase activity was measured by determining vanadate-sensitive release of inorganic phosphate from ATP as described (Sarkadi et al, J. Biol. Chem. 267:4854 (1992)). Sf9 membranes containing 5-10 μg protein were incubated in 100 μl of 50 mM Mes-Tris, pH 6.8, 50 mM KCl, 2 mM DTT, 2 mM EGTA, 1 mM ouabain, 5 mM sodium azide, 5 mM Mg/ATP. P-gp-associated ATPase activity in MCF7-MDR cells was measured using the same condition except that 50 mM Mes-Tris, pH 6.8 was replaced by 50 mM Tris-HCl, pH 7.5. […] Reactions were conducted at 37° C. for 20 min.

P-gp = P-gp (Homo sapiens, UniProt P08183, G185V); assay: Inhibition of basal and drug-stimulated P-gp ATPase activity; assay type: biochemical
Source text: FIG. 3. Ability of acetyl farnesyl methylester (AFCME) to block drug stimulated ATPase of MDR.
FIG. 4. Interaction of prenylcysteine methylamides and prenylcysteine-containing dipeptides with P-gp. The compounds were purified by reversephase HPLC chromatography and analyzed for their ability to stimulate the ATPase activity of P-gp in Sf9 membranes and, in the case of AFCMA, to inhibit FCME-stimulated ATPase activity as described for AFCME in Example 4. Left panel--Stimulation of P-gp ATPase activity in Sf9 membranes. Increasing concentration of FCMA (.box-solid.), farnesylated γGlu-Cys (unmethylated F-dipeptide, Δ), and the methylated form of farnesylated γGlu-Cys (methylated F-dipeptide, .tangle-solidup.) were analyzed. Right panel AFCMA inhibition of P-gp ATPase activity in Sf9 membranes. Increasing concentrations of AFCMA were added to membranes from Sf9 cells expressing P-gp either with no added drug (.largecircle.) or along with 20 μM […] as an ATPase stimulator (.circle-solid.).
The ATPase assay can also be used to identify test compounds that inhibit P-gp activity, ie P-gp antagonists, which are also potential agents for reversing P-gp-mediated drug resistance. In this type of assay, the ability of a selected test compound to reduce P-gp-ATPase which has been stimulated by a drug known to elicit this activity (eg verapimil or farnesylcysteine methyl ester (FCME) is examined. Increasing concentrations of the selected test compound and a fixed amount of the stimulatory drug are mixed, added to the P-gp preparation, and ATPase activity determined. A dose-dependent inhibition of ATPase activity by the selected compound indicates an antagonist.
Reactions were conducted at 37° C. for 20 min.

[2] = biological target: native P-gp expressed in the drug-resistant human breast cancer cell line MCF7-MDR (Homo sapiens, UniProt P08183); details: mcf7-mdr membranes, 20 min
Source text: as §1, with “(1992)). […]” for “(1992)).”
P-gp-associated ATPase activity was measured by determining vanadate-sensitive release of inorganic phosphate from ATP as described (Sarkadi et al, J. Biol. Chem. 267:4854 (1992)). […] P-gp-associated ATPase activity in MCF7-MDR cells was measured using the same condition except that 50 mM Mes-Tris, pH 6.8 was replaced by 50 mM Tris-HCl, pH 7.5. […]

[3] = read-out: maximum stimulation of P-gp ATPase

CC(=O)N[C@@H](CSCC=C(C)CCC=C(C)CCC=C(C)C)C(=O)O [AFC, N-acetyl-S-farnesylcysteine]
ATPase stimulation (in words) [1]: did not stimulate the transporter's ATPase activity

CNC(=O)C(CSCC=C(C)CCC=C(C)CCC=C(C)C)NC(C)=O (stereo not drawn) [AFCMA]
inhibition of drug-stimulated P-gp ATPase activity (in words) (P-gp; Sf9 membranes, FIG. 4 right panel): potent in stimulation (FCMA) and inhibition of drug-stimulated (AFCMA) P-gp ATPase activities

COC(=O)[C@H](CSCC=C(C)CCC=C(C)CCC=C(C)C)NC(C)=O [AFCME, N-acetyl-S-farnesylcysteine methyl ester]
concentration at which the transporter's basal ATPase activity is inhibited (P-gp; basal ATPase activity): > 20 µM | blocking of basal and drug (FCME, verapamil)-stimulated ATPase activity (in words) (P-gp; dose-dependent, FIG. 3): can block both the basal and drug-stimulated ATPase activities of P-gp in a dose-dependent fashion | inhibition of basal ATPase activity (in words) (P-gp; higher concentrations (above 20 μM), preliminary analysis): marked inhibition of even the basal ATPase activity | stimulation of ATPase activity at low concentrations (in words) (P-gp; low (<20 μM) concentrations, preliminary analysis): weak stimulation of the ATPase activity | ATPase stimulation (in words) [1]: essentially abolished its stimulatory effect

CC(C)=CCCC(C)=CCCC(C)=CCSC[C@H](NC(=O)CC[C@H](N)C(=O)O)C(=O)O [F-γGlu- Cys]
stimulation of P-gp ATPase activity (in words) [1]: stimulate P-gp ATPase activity in a methylation-dependent fashion

CC(C)=CCCC(C)=CCCC(C)=CCSC[C@H](N)C(=O)O [FC, S-farnesylcysteine]
stimulation of P-gp ATPase activity (in words) [1]: ineffective in stimulating the ATPase of P-gp

CNC(=O)C(N)CSCC=C(C)CCC=C(C)CCC=C(C)C (stereo not drawn) [FCMA]
stimulation of P-gp ATPase activity (in words) [1]: potent in stimulation

COC(=O)[C@@H](N)CSC/C=C(\C)CC/C=C(\C)CCC=C(C)C [FCME, S-farnesylcysteine methyl ester]
concentration of maximum stimulation of P-gp ATPase [1]: 10 to 20 µM | stimulation of P-gp ATPase activity (in words) [1]: stimulated this activity in a fashion very similar to that of verapamil | Emax ([1]; read-out: Maximal stimulation of ATPase activity): ~450% | Emax [1, 3]: 400 to 500% | increase of P-gp-catalyzed ATP hydrolysis [2]: ~ 2.5 fold

CC(C)=CCCC(C)=CCCC(C)=CCO [FOH, Farnesol, reference compound]
ATPase stimulation (in words) [1]: ineffective

CC(C)=CCC/C(C)=C/CC/C(C)=C/CC/C(C)=C/CSC[C@H](N)C(=O)O [GGC, S-geranylgeranylcysteine]
stimulation of P-gp ATPase activity (in words) [1]: ineffective in stimulating the ATPase of P-gp

COC(=O)[C@@H](N)CSC/C=C(\C)CC/C=C(\C)CC/C=C(\C)CCC=C(C)C [GGCME, S-geranylgeranylcysteine methyl ester]
concentration of maximum stimulation of P-gp ATPase [1]: 10 to 20 µM | stimulation of P-gp ATPase activity (in words) [1]: stimulated this activity in a fashion very similar to that of verapamil | Emax [1, 3]: 400 to 500% | increase of P-gp-catalyzed ATP hydrolysis [2]: ~ 2.5 fold
